For data set [1], the system named is Caco-2 cells. To be noted: Ozeki et al. 2015, cited from earlier work; for decrease in the concentration on the Apical side: 120 minutes of incubation.
A short description of data set [2]: Caco-2 membrane permeability, improved method as used in the following Examples (96-well, 20 to 24 h preincubation). Conditions: human, Caco-2, Caco-2 (cm/sec). It counts as in vitro ADME. A digest of the protocol:
(§1)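 Caco-2 monolayers were grown three weeks and preincubated 20–24 h at 37 °C with compound in DMEM+FaSSIF (1% DMSO) apically. The assay then used compound in FaSSIF/HBSS (1% DMSO, pH 6.0) apically and HBSS with 4% BSA (pH 7.4) basally. Basal samples were taken at 180 min for LC/MS, and Papp (cm/sec) was calculated.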
(In general: Caco-2 cells form a polarised layer with tight junctions and transporters.)

The subject of data set [3] is Caco-2 cells. The data set is described as above. It counts as in vitro ADME. A digest of the protocol: as §1

Starred links: 1 amine or outer side, 2 acyl side, 3 side chain; linkers in the order of their positions; H or OH if unused. Positions of bridges follow the written chain, without caps; N, C: chain ends. Non-standard residues stand in square brackets, D forms with d. Residues, ends and D or L forms follow the SMILES beside them. *: point of attachment. X1 = CC(CC(=O)[*:2])C(=O)[C@@H](N[*:1])[C@@H](C)O; NMePhe(3-Cl) = CN[C@@H](Cc1cccc(Cl)c1)C(=O)O; NMeF = CN[C@@H](Cc1ccccc1)C(=O)O; NMeD = CN[C@@H](CC(=O)O)C(=O)O; NMeL = CN[C@@H](CC(C)C)C(=O)O; NMeV = CN[C@H](C(=O)O)C(C)C; Piperidide = C1CCN(*)CC1; dNMeA = CN[C@H](C)C(=O)O; NBuGly = CCCCNCC(=O)O; Ethyl(2-OH) = OCC*; Sar = CNCC(=O)O; tBu = CC(C)(C)*

In the case of `COCCc1ccc(OCC(O)CNC(C)C)cc1` (stereo not shown) [metoprolol], the “decrease in the concentration on the Apical side” value in the data set on Caco-2 cells [1] is listed as “approximately 20%”.
The Papp A→B is the apparent permeability from the apical to the basolateral side of a cell layer. A lower Papp A→B goes with slow passage. Compound `CC(C)C[C@H]1C(=O)N[C@@H]([C@@H](C)O)C(=O)C(C)CC(=O)N(C)[C@@H](C(C)C)C(=O)N[C@@H](Cc2ccccc2)C(=O)N(C)[C@@H](Cc2cccc(Cl)c2)C(=O)N(C)[C@@H](CC(C)C)C(=O)N(C)[C@H](C(=O)N2CCCCC2)CC(=O)N2CCC[C@H]2C(=O)N[C@@H](Cc2ccccc2)C(=O)N[C@@H](COC(C)(C)C)C(=O)N1C` (stereo partly shown) [pd162] (PFS(tBu)[NMeL][X1][NMeV]F[NMePhe(3-Cl)][NMeL][NMeD]-Piperidide; lactam N-10) returned a Papp A→B at 180 min in data set [2] of 1.2 ×10⁻⁶ cm/s. Also, the “Caco-2” value in the data set on Caco-2 cells [3] (Caco-2) turned out to be 1.2e-06 cm/s.
The like results for `CC(C)C[C@H]1C(=O)N[C@@H]([C@@H](C)O)C(=O)N(C)CC(=O)N(C)[C@@H](C(C)C)C(=O)N[C@@H](Cc2ccccc2)C(=O)N(C)[C@@H](Cc2cccc(Cl)c2)C(=O)N(C)[C@@H](CC(C)C)C(=O)N(C)[C@H](C(=O)N2CCCCC2)CC(=O)N2CCC[C@@H]2C(=O)N[C@@H](Cc2ccccc2)C(=O)N[C@@H](COC(C)(C)C)C(=O)N1C` [pd163] ([dP]FS(tBu)[NMeL]T[Sar][NMeV]F[NMePhe(3-Cl)][NMeL][NMeD]-Piperidide; lactam N-11) were, in that order, 1.7 ×10⁻⁶ cm/s and 1.7e-06 cm/s.
The like results for `CC(C)C[C@H]1C(=O)N[C@@H]([C@@H](C)O)C(=O)N(C)CC(=O)N(C)[C@@H](C(C)C)C(=O)N[C@@H](Cc2ccccc2)C(=O)N(C)[C@@H](Cc2cccc(Cl)c2)C(=O)N(C)[C@@H](CC(C)C)C(=O)N(C)[C@H](C(=O)N2CCCCC2)CC(=O)N(C)[C@H](C)C(=O)N[C@@H](Cc2ccccc2)C(=O)N[C@@H](COC(C)(C)C)C(=O)N1C` [pd167] ([dNMeA]FS(tBu)[NMeL]T[Sar][NMeV]F[NMePhe(3-Cl)][NMeL][NMeD]-Piperidide; lactam N-11) were, in that order, 1.7 ×10⁻⁶ cm/s and 1.7e-06 cm/s.
Compound `CCCCN1CC(=O)N(C)[C@@H](Cc2ccccc2)C(=O)N(C)[C@@H](CC(C)C)C(=O)N[C@@H](COC(C)(C)C)C(=O)N(C)[C@@H](CC(C)C)C(=O)N[C@H](C(=O)N2CCCCC2)CC(=O)N(C)CC(=O)N(C)[C@@H](Cc2ccccc2)C(=O)N[C@@H](C(C)C)C(=O)N(C)[C@@H](CC(C)C)C(=O)N[C@@H](COCCO)C1=O` [pd501] ([Sar][NMeF]V[NMeL]S(Ethyl(2-OH))[NBuGly][NMeF][NMeL]S(tBu)[NMeL]D-Piperidide; lactam N-11) gave a Caco-2 with Caco-2 cells [3] (human, Caco-2, 180 min) of 1.1e-06 cm/s.
Turning to `CC(C)NCC(O)COc1cccc2ccccc12` (stereo not shown) [propranolol], in the data set on Caco-2 cells [1], the “decrease in the concentration on the Apical side” value is listed as “approximately 40%” and the “added drug distributed in the cells after completion of incubation” value was “approximately 8%”.

The record behind these values is US20200131669A1, “CYCLIC PEPTIDE COMPOUND HAVING HIGH MEMBRANE PERMEABILITY, AND LIBRARY CONTAINING SAME” (Chugai Seiyaku Kabushiki Kaisha, priority 2017, published 2020).
